# US10294202B2, “Pyrrolidinones as herbicides” (FMC Corporation, priority 2013, dated 2019)
# Key:
# kochia = experiment: Test A pre-/postemergence herbicide test; assay type: in vivo, Kochia scoparia
# In short: (§1)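 Both application timings used compounds in a non-phytotoxic solvent plus surfactant. Pre-emergence: soil sprayed directly after seeding into loam/sand. Post-emergence: foliage of 2–10 cm seedlings (1–2 leaves) sprayed. Injury rated ~10 days later, 0–100.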
# corn = experiment: Test A pre-/postemergence herbicide test; assay type: in vivo, Zea mays; settings: Postemergence
# In short: as §1
# giant foxtail = experiment: Test A pre-/postemergence herbicide test; assay type: in vivo, Setaria faberii
# In short: as §1
# rice = experiment: Test B flooded paddy test; assay type: in vivo, Oryza sativa; settings: Flood, scale of 0 to 100 where 0 is no effect and 100 is complete control
# In short: (§2)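 Scored visually 0–100 (0 no effect, 100 complete control) versus controls after 13 to 15 greenhouse days. Treatment: compound added to paddy water kept 3 cm above soil, on 2-leaf-stage plants.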
# barnyardgrass [1] = experiment: Test B flooded paddy test; assay type: in vivo, Echinochloa crus-galli; settings: Flood, scale of 0 to 100 where 0 is no effect and 100 is complete control
# In short: as §2
# ryegrass, Italian = experiment: Test A pre-/postemergence herbicide test; assay type: in vivo, Lolium multiflorum
# In short: as §1
# barnyardgrass [2] = experiment: Test A pre-/postemergence herbicide test; assay type: in vivo, Echinochloa crus-galli
# In short: as §1
# ragweed = experiment: Test A pre-/postemergence herbicide test; assay type: in vivo, Ambrosia elatior
# In short: as §1
# pigweed = experiment: Test A pre-/postemergence herbicide test; assay type: in vivo, Amaranthus retroflexus
# In short: as §1
# sedge, umbrella = experiment: Test B flooded paddy test; assay type: in vivo, Cyperus difformis; settings: Flood, scale of 0 to 100 where 0 is no effect and 100 is complete control
# In short: as §2
# ducksalad = experiment: Test B flooded paddy test; assay type: in vivo, Heteranthera limosa; settings: Flood, scale of 0 to 100 where 0 is no effect and 100 is complete control
# In short: as §2
# galium = experiment: Test A postemergence herbicide test; assay type: in vivo, Galium aparine
# In short: (§3)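 Visual injury rating, 0 (no effect) to 100 (complete control), versus untreated controls ~10 days after treatment. Postemergence spray applied at one- to two-leaf stage, plants 2–10 cm tall, potted in loam soil/sand. Greenhouse-held.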
# blackgrass = experiment: Test A postemergence herbicide test; assay type: in vivo, Alopecurus myosuroides
# In short: as §3
# wheat = experiment: Test A pre-/postemergence herbicide test; assay type: in vivo, Triticum aestivum; settings: Postemergence
# In short: as §1
# [3] = 125 g ai/ha, visual rating, 0 to 100 scale, 0 no effect, 100 complete control, approximately 10 days, preemergence
# [4] = Postemergence, 125 g ai/ha, 0 to 100 scale, 0 is no effect, 100 is complete control
# [5] = preemergence, 500 g ai/ha, 0 to 100 scale, 0 is no effect and 100 is complete control
# [6] = 125 g ai/ha, 0 to 100 scale, 0 is no effect, 100 is complete control
# [7] = Postemergence, 500 g ai/ha, 0 to 100 scale (0 no effect, 100 complete control)
# [8] = 500 g ai/ha, 0 to 100 scale (0 no effect, 100 complete control)
# [9] = Postemergence, 125 g ai/ha, visual rating on 0 to 100 scale (0 no effect, 100 complete control), approx. 10 days
# [10] = Preemergence, 125 g ai/ha, 0 to 100 scale where 0 is no effect and 100 is complete control
# [11] = Preemergence, 500 g ai/ha, visual rating on 0 to 100 scale (0 no effect, 100 complete control)
# [12] = 125 g ai/ha, visual rating on 0 to 100 scale (0 no effect, 100 complete control), approx. 10 days
structure (smiles),measurement,setting,value
O=C1NCC(c2cccc(OC(F)F)c2)C1C(=O)Nc1ccccc1C(F)(F)F (centres unmarked) [Compound 222],"Plant response rating, Kochia",kochia; [3],0
same,"Plant response rating, Kochia",kochia; [4],0
same,"Kochia plant response rating (0 to 100 scale, 0 is no effect, 100 is complete control)","kochia; Postemergence, 500 g ai/ha",40
same,"Plant response rating, Kochia",kochia; [5],50
same,"Plant response rating, Corn",corn; [6],20
same,"Corn plant response rating (0 to 100 scale, 0 is no effect, 100 is complete control)",corn; 500 g ai/ha,60
same,"Plant response rating, Foxtail, Giant",giant foxtail; [3],90
same,"Plant response rating, Foxtail, Giant",giant foxtail; [4],80
same,"Foxtail, Giant plant response rating (0 to 100 scale, 0 is no effect, 100 is complete control)","giant foxtail; Postemergence, 500 g ai/ha",90
same,"Plant response rating, Foxtail, Giant",giant foxtail; [5],90
same,"Plant response rating, Rice",rice; 500 g ai/ha,0
same,"Plant response rating, Barnyardgrass",barnyardgrass [1]; 500 g ai/ha,60
same,"Plant response rating, Ryegrass, Italian","ryegrass, Italian; [3]",20
same,"Plant response rating, Ryegrass, Italian","ryegrass, Italian; [4]",20
same,"Ryegrass, Italian plant response rating (0 to 100 scale, 0 is no effect, 100 is complete control)","ryegrass, Italian; Postemergence, 500 g ai/ha",30
same,"Plant response rating, Ryegrass, Italian","ryegrass, Italian; [5]",50
same,"Plant response rating, Barnyardgrass",barnyardgrass [2]; [3],70
same,"Plant response rating, Barnyardgrass",barnyardgrass [2]; [4],70
same,"Barnyardgrass plant response rating (0 to 100 scale, 0 is no effect, 100 is complete control)","barnyardgrass [2]; Postemergence, 500 g ai/ha",90
same,"Plant response rating, Barnyardgrass",barnyardgrass [2]; [5],90
same,"Plant response rating, Ragweed",ragweed; [3],0
same,"Plant response rating, Ragweed",ragweed; [4],0
same,"Ragweed plant response rating (0 to 100 scale, 0 is no effect, 100 is complete control)","ragweed; Postemergence, 500 g ai/ha",40
same,"Plant response rating, Ragweed",ragweed; [5],20
same,"Plant response rating, Pigweed",pigweed; [3],0
same,"Plant response rating, Pigweed",pigweed; [4],0
same,"Pigweed plant response rating (0 to 100 scale, 0 is no effect, 100 is complete control)","pigweed; Postemergence, 500 g ai/ha",20
same,"Plant response rating, Pigweed",pigweed; [5],30
same,"Plant response rating, Sedge, Umbrella","sedge, umbrella; 500 g ai/ha",0
same,"Plant response rating, Ducksalad",ducksalad; 500 g ai/ha,100
same,"Plant response rating, Galium",galium; [6],30
same,"Galium plant response rating (0 to 100 scale, 0 is no effect, 100 is complete control)",galium; 500 g ai/ha,60
same,"Plant response rating, Blackgrass",blackgrass; [6],30
same,"Blackgrass plant response rating (0 to 100 scale, 0 is no effect, 100 is complete control)",blackgrass; 500 g ai/ha,60
same,"Plant response rating, Wheat",wheat; [6],20
same,"Wheat plant response rating (0 to 100 scale, 0 is no effect, 100 is complete control)",wheat; 500 g ai/ha,30
COc1ccc(C2CNC(=O)C2C(=O)Nc2ccccc2C(F)(F)F)cc1C(F)(F)F (centres unmarked) [Compound 240],"Plant response rating, Kochia",kochia; [3],0
same,"Plant response rating, Kochia",kochia; [4],0
same,"Plant response rating, Kochia",kochia; [7],0
same,"Plant response rating, Kochia",kochia; [5],0
same,"Plant response rating, Corn",corn; [6],0
same,"Plant response rating, Corn",corn; [8],20
same,"Plant response rating, Foxtail, Giant",giant foxtail; [3],70
same,"Plant response rating, Foxtail, Giant",giant foxtail; [4],40
same,"Plant response rating, Foxtail, Giant",giant foxtail; [7],80
same,"Plant response rating, Foxtail, Giant",giant foxtail; [5],90
same,"Plant response rating, Rice",rice; 1000 g ai/ha,0
same,"Plant response rating, Barnyardgrass",barnyardgrass [1]; 1000 g ai/ha,70
same,"Plant response rating, Ryegrass, Italian","ryegrass, Italian; [3]",0
same,"Plant response rating, Ryegrass, Italian","ryegrass, Italian; [4]",0
same,"Plant response rating, Ryegrass, Italian","ryegrass, Italian; [7]",0
same,"Plant response rating, Ryegrass, Italian","ryegrass, Italian; [5]",0
same,"Plant response rating, Barnyardgrass",barnyardgrass [2]; [3],20
same,"Plant response rating, Barnyardgrass",barnyardgrass [2]; [4],30
same,"Plant response rating, Barnyardgrass",barnyardgrass [2]; [7],90
same,"Plant response rating, Barnyardgrass",barnyardgrass [2]; [5],50
same,"Plant response rating, Ragweed",ragweed; [3],0
same,"Plant response rating, Ragweed",ragweed; [4],0
same,"Plant response rating, Ragweed",ragweed; [7],0
same,"Plant response rating, Ragweed",ragweed; [5],0
same,"Plant response rating, Pigweed",pigweed; [3],0
same,"Plant response rating, Pigweed",pigweed; [4],0
same,"Plant response rating, Pigweed",pigweed; [7],0
same,"Plant response rating, Pigweed",pigweed; [5],0
same,"Plant response rating, Sedge, Umbrella","sedge, umbrella; 1000 g ai/ha",0
same,"Plant response rating, Ducksalad",ducksalad; 1000 g ai/ha,85
same,"Plant response rating, Galium",galium; [6],0
same,"Plant response rating, Galium",galium; [8],0
same,"Plant response rating, Blackgrass",blackgrass; [6],0
same,"Plant response rating, Blackgrass",blackgrass; [8],0
same,"Plant response rating, Wheat",wheat; [6],0
same,"Plant response rating, Wheat",wheat; [8],20
O=C1NCC(c2ccc(OC(F)F)cc2)C1C(=O)Nc1ccccc1C(F)(F)F (centres unmarked) [Compound 348],"Plant response rating, Kochia",kochia; [9],20
same,"Plant response rating, Kochia",kochia; [10],0
same,Kochia plant response rating,kochia; [11],70
same,"Plant response rating, Corn",corn; [12],0
same,"Plant response rating, Corn",corn; [8],0
same,"Plant response rating, Foxtail, Giant",giant foxtail; [9],70
same,"Plant response rating, Foxtail, Giant",giant foxtail; [7],90
same,"Plant response rating, Foxtail, Giant",giant foxtail; [10],90
same,"Foxtail, Giant plant response rating",giant foxtail; [11],90
same,"Plant response rating, Rice",rice; 500 g ai/ha,0
same,"Plant response rating, Barnyardgrass",barnyardgrass [1]; 500 g ai/ha,40
same,"Plant response rating, Ryegrass, Italian","ryegrass, Italian; [9]",0
same,"Plant response rating, Ryegrass, Italian","ryegrass, Italian; [10]",0
same,"Ryegrass, Italian plant response rating","ryegrass, Italian; [11]",0
same,"Plant response rating, Barnyardgrass",barnyardgrass [2]; [9],20
same,"Plant response rating, Barnyardgrass",barnyardgrass [2]; [7],50
same,"Plant response rating, Barnyardgrass",barnyardgrass [2]; [10],30
same,Barnyardgrass plant response rating,barnyardgrass [2]; [11],60
same,"Plant response rating, Ragweed",ragweed; [9],0
same,Ragweed plant response rating,ragweed; [11],30
same,"Plant response rating, Pigweed",pigweed; [9],0
same,"Plant response rating, Pigweed",pigweed; [10],20
same,Pigweed plant response rating,pigweed; [11],50
same,"Plant response rating, Sedge, Umbrella","sedge, umbrella; 500 g ai/ha",0
same,"Plant response rating, Ducksalad",ducksalad; 500 g ai/ha,100
same,"Plant response rating, Galium",galium; [12],0
same,"Plant response rating, Blackgrass",blackgrass; [12],20
same,"Plant response rating, Blackgrass",blackgrass; [8],30
same,"Plant response rating, Wheat",wheat; [12],0
